Results from patent publication US20230277632A1, “MODIFIED PlySs2 LYSINS AND ANTIBIOTIC COMBINATIONS FOR USE AGAINST GRAM-POSITIVE BACTERIA” (ContraFect Corporation, priority 2020, published 2023).
In brackets after ≈: the same amount, converted by molar mass. Several values for one entry are separate records, joined by “and”; a condition that tells them apart may be missing. Identical values can stand only once.

Experiments:
S. aureus isolates [1] = assay: In vivo efficacy of daptomycin in combination with pp296, neutropenic murine thigh infection model; details: 24 h; for Replicate Log10 CFU/thigh data: daptomycin alone
Method: Study animals: Specific pathogen-free female ICR mice (average body weight 23 grams) were provided food and water ad libitum and maintained and used in accordance with National Research Council recommendations. Animals were allowed a 48-hour post-delivery acclimation period before every experiment. Mice were rendered transiently neutropenic by injection of cyclophosphamide via intraperitoneal (IP) route at a dose of 150 mg/kg of body weight at four days before bacterial inoculation and 100 mg/kg of body weight at one day before bacterial inoculation.
Neutropenic Thigh Infection Model: Two transfers of the bacterial isolates were performed onto trypticase soy agar plates with 5% sheep blood and placed into an incubator at 37° C. for approximately 24 hours. After an 18-24 hour incubation of the second transfer, a suspension of approximately 10^7 CFU/mL was made for inoculation. Final bacterial inoculum concentrations were confirmed by serial dilution and plating techniques. Thigh infection with the test isolate was produced by intramuscular injection of 0.1 mL of the bacterial inoculum into each thigh of the mice. Antimicrobial therapy was initiated 2 hours after bacterial inoculation, as detailed below.
Untreated control mice (n=3) were sacrificed just prior to antibiotic administration and 24 hours after bacterial inoculation. Animals sacrificed prior to antibiotic initiation served as 0-hour control animals, representing initial bacterial burden. […] Treatment mice (n=3/group) were sacrificed at the end of the 24 hour treatment period. After sacrifice, both thighs for each mouse were homogenized in normal saline. Serial dilutions were plated on Trypticase soy agar with 5% sheep blood and incubated for 18 to 20 hours at 37.0 to determine the CFU. Efficacy was calculated as the change in bacterial density obtained in treated mice after 24 hours compared with the numbers in the 0-hour control animals. Bacterial density represents the average CFU determined from 3 mice, each contributing 2 thighs.
For the 4 S. aureus isolates HPV107, CAIRD426, JMI227, and NRS123, the following sub-therapeutic daptomycin dosage regimen was adopted: 0.76 mg/kg at 0 hrs, 0.4 mg/kg at 4 hrs, 0.24 mg/kg at 10 hrs, and 0.12 mg/kg at 17 hrs.

S. aureus = assay: pp296 dose fractionation study, neutropenic murine thigh infection model; assay type: in vivo; details: sub-therapeutic daptomycin SC alone, 24 h
Method: Each of the pp296 TDDs was fractionated into three regimens, i.e., one-third of the entire dose was administered via IV three times (q8h); one-half of the entire does was administered via IV two times (q12h), or the entire dose was administered via IV once daily over a 24-hour period, for a total of three groups per each TDD.
Untreated control mice (n=3/group) were sacrificed just prior to antibiotic administration, as well as 24 hours later. Animals sacrificed prior to antibiotic administration served as 0-hour control animals, representing initial bacterial burden. The 24-hour control animals received sterile normal saline in the same volume and schedule as the most frequent active drug regimen. […] After the 24-hour treatment period, all animals were euthanized and thighs were cultured quantitatively as described above. The change in bacterial density was calculated for each of the dosing regimen. Comparisons were made between the different regimens of the same total daily dose on bacterial burdens at 24 hours using one-way Analysis of Variance (ANOVA) test followed by Tukey's test where the P value was 0.05.

S. aureus isolates [2] = assay: MIC determination (broth microdilution) against 8 S. aureus isolates; assay type: cell-based; details: CAMHB Ca^2+, unit assumed
Method: Suitable methods for assessing the activity of a modified lysin polypeptide as disclosed herein are well known in the art and described in the examples. […] For example, MIC values for a modified lysin polypeptide may be determined against e.g., laboratory Staphylococcus aureus strains, in e.g., Mueller-Hinton broth or Mueller-Hinton broth supplemented with serum, such as horse serum.
The pp296 MICs were determined based on (1) cation-adjusted Mueller-Hinton Broth with 25% horse serum and 0.5 mM DTT (caMHB-HSD); (2) human serum (100% serum); and (3) ICR mice (100% serum). Vancomycin and daptomycin MICs of the isolate strains were determined in accordance with the broth microdilution method as outlined by CLSI. Results of the MIC determination are shown below in Table 2. The bacterial isolates were frozen at −80° C. in skim milk.

In the case of `CCCCCCCCCC(=O)N[C@@H](Cc1c[nH]c2ccccc12)C(=O)N[C@H](CC(N)=O)C(=O)N[C@@H](CC(=O)O)C(=O)N[C@@H]1C(=O)NCC(=O)N[C@@H](CCCN)C(=O)N[C@@H](CC(=O)O)C(=O)N[C@H](C)C(=O)N[C@@H](CC(=O)O)C(=O)NCC(=O)N[C@H](CO)C(=O)N[C@@H]([C@H](C)CC(=O)O)C(=O)N[C@@H](CC(=O)c2ccccc2N)C(=O)O[C@@H]1C` [Daptomycin, daptomycin], the “Replicate Log10 CFU/thigh data” value (S. aureus isolates [1]; isolate ATCC2921, 0.475/0.25/0.15/0.075 mg/kg at 0/4/10/17 hrs) is reported as 8.02 Log10 CFU/thigh and 8.04 Log10 CFU/thigh and 7.79 Log10 CFU/thigh and 8.03 Log10 CFU/thigh and 6.18 Log10 CFU/thigh and 7.38 Log10 CFU/thigh, the “Replicate Log10 CFU/thigh data” value (S. aureus isolates [1]; isolate CAIRD426, 0.76/0.4/0.24/0.12 mg/kg at 0/4/10/17 hrs) is reported as 8.16 Log10 CFU/thigh and 8.20 Log10 CFU/thigh and 7.59 Log10 CFU/thigh and 8.18 Log10 CFU/thigh and 7.47 Log10 CFU/thigh and 7.35 Log10 CFU/thigh and the “Replicate Log10 CFU/thigh data” value (S. aureus isolates [1]; isolate HPV107, 0.76/0.4/0.24/0.12 mg/kg at 0/4/10/17 hrs) is reported as 7.16 Log10 CFU/thigh and 7.34 Log10 CFU/thigh and 7.24 Log10 CFU/thigh and 7.08 Log10 CFU/thigh and 6.74 Log10 CFU/thigh and 5.77 Log10 CFU/thigh. The “Replicate Log10 CFU/thigh data” value (S. aureus isolates [1]; isolate JMI227, 0.76/0.4/0.24/0.12 mg/kg at 0/4/10/17 hrs) was 5.93 Log10 CFU/thigh and 6.08 Log10 CFU/thigh and 6.48 Log10 CFU/thigh and 6.73 Log10 CFU/thigh and 6.86 Log10 CFU/thigh and 6.89 Log10 CFU/thigh, the “Replicate Log10 CFU/thigh data” value (S. aureus isolates [1]; isolate JMI4789, 0.475/0.25/0.15/0.075 mg/kg at 0/4/10/17 hrs) was 8.00 Log10 CFU/thigh and 6.85 Log10 CFU/thigh and 8.63 Log10 CFU/thigh and 8.52 Log10 CFU/thigh and 8.14 Log10 CFU/thigh and 7.21 Log10 CFU/thigh and the “Replicate Log10 CFU/thigh data” value (S. aureus isolates [1]; isolate NRS100, 0.475/0.25/0.15/0.075 mg/kg at 0/4/10/17 hrs) was 4.83 Log10 CFU/thigh and 5.29 Log10 CFU/thigh and 6.67 Log10 CFU/thigh and 7.76 Log10 CFU/thigh and 6.20 Log10 CFU/thigh and 7.09 Log10 CFU/thigh. The “Replicate Log10 CFU/thigh data” value (S. aureus isolates [1]; isolate NRS123, 0.76/0.4/0.24/0.12 mg/kg at 0/4/10/17 hrs) was 6.73 Log10 CFU/thigh and 7.28 Log10 CFU/thigh and 6.86 Log10 CFU/thigh and 7.09 Log10 CFU/thigh and 5.81 Log10 CFU/thigh and 6.81 Log10 CFU/thigh, the “Replicate Log10 CFU/thigh data” value (S. aureus isolates [1]; isolate NRS217, 0.475/0.25/0.15/0.075 mg/kg at 0/4/10/17 hrs) was 7.94 Log10 CFU/thigh and 7.84 Log10 CFU/thigh and 7.89 Log10 CFU/thigh and 7.92 Log10 CFU/thigh and 8.01 Log10 CFU/thigh and 8.02 Log10 CFU/thigh and the “average bacterial growth vs starting inoculum” value (S. aureus isolates [1]; sub-therapeutic daptomycin alone, 8 isolates) was 1.47±0.80 log10 CFU/thigh. The “bacterial burden vs 0-hour control mice” value (S. aureus) was 0.82±0.44 log10 CFU/thigh, the MIC Daptomycin (CAMHB Ca^2+) (S. aureus isolates [2]; ATCC 29213 MSSA) was 1 µg/mL (≈ 0.617 µM) and the MIC Daptomycin (CAMHB Ca^2+) (S. aureus isolates [2]; CAIRD426 MRSA) was 1 µg/mL (≈ 0.617 µM). It also gave an MIC Daptomycin (CAMHB Ca^2+) (S. aureus isolates [2]; HPV107 MRSA) of 0.5 µg/mL (≈ 0.309 µM), an MIC Daptomycin (CAMHB Ca^2+) (S. aureus isolates [2]; JMI227 MRSA) of 0.5 µg/mL (≈ 0.309 µM) and an MIC Daptomycin (CAMHB Ca^2+) (S. aureus isolates [2]; JMI4789 MRSA) of 1 µg/mL (≈ 0.617 µM). For the same compound, the MIC Daptomycin (CAMHB Ca^2+) (S. aureus isolates [2]; NRS100 (COL) MRSA) was 0.5 µg/mL (≈ 0.309 µM), the MIC Daptomycin (CAMHB Ca^2+) (S. aureus isolates [2]; NRS123 (MW2) MRSA) was 1 µg/mL (≈ 0.617 µM) and the MIC Daptomycin (CAMHB Ca^2+) (S. aureus isolates [2]; NRS271 MRSA/LRSA) was 0.5 µg/mL (≈ 0.309 µM).
